Results from paper PMC6272715, “Discovery of Novel Small Molecule Anti-HCV Agents via the CypA Inhibitory Mechanism Using O-Acylation-Directed Lead Optimization” (Molecules, 2015).
Several values for one entry are separate records, joined by “and”; a condition that tells them apart may be missing. Identical values can stand only once. Like-named read-outs stand apart in the source and are kept apart here.

Columns and labels:
[1] = Cell proliferation (cytotoxicity) assay, WST-1; assay type: cell-based; conditions: human, Huh 7.5.1 cells
Method: Cell Proliferation Assay: Huh 7.5.1 cells were seeded at a density of 2 × 10^4 cells per well in 96-well plates overnight. The cells were respectively incubated with serial diluted compounds for 48 h, and the viability of Huh7.5.1 cells was determined in 96-well tissue culture plates using cell proliferation reagent WST-1 (Roche, Basel, Switzerland). The absorbance (OD450 /reference OD630) was measured to detect the cytotoxicity of compounds, according to the manufacturer’s protocol of Cell Proliferation Reagent WST-1.

[2] = tested on: JFH1-2a virus (wild type); experiment: HCV virus assay, JFH1-2a wild type, Huh 7.5.1 cells; conditions: Hepatitis C virus
[3] = PBS pH 7.4, 37 °C
HCV Con1-1b replicon = experiment: HCV Con1-1b subgenomic replicon assay; assay type: cell-based; conditions: Hepatitis C virus; Table 4; read-out: Anti-HCV Activity EC50 ± SD Replicon Assay Con1-1b
HCV H77-1a replicon = experiment: HCV H77-1a subgenomic replicon assay; assay type: cell-based; conditions: Hepatitis C virus; Table 4; read-out: Anti-HCV Activity EC50 ± SD Replicon Assay H77-1a

SMILES: CCCCCCCC(=O)Oc1cccc(O)c1C(=O)NC(=O)NC1c2ccccc2-c2ccccc21 [Compound 25, 1-(2-Hydroxy-6-n-Octanoyloxybenzoyl)-3-(9H-fluoren-9-yl)-urea]
- CC50 at 48 h ([1]; Table 4, 48 h): > 16000 nM
- CC50 at 48 h ([1]; Table 5): > 20000 nM
- EC50 ([2]; Huh-7.5.1, read-out: Anti-HCV Activity (Virus Assay) EC50 ± SD JFH1-2a (Wild Type)): 270 ± 90 nM
- EC50 ([2]; Huh-7.5.1, read-out: Anti-HCV Activity EC50 ± SD Virus Assay JFH1-2a): 190 ± 80 nM
- 25 Content ([3]; 0 h): 100%
- 25 Content ([3]; 0.5 h): 99.79%
- 25 Content ([3]; 1.0 h): 100.13%
- 25 Content ([3]; 1.5 h): 99.76%
- 25 Content ([3]; 2.0 h): 100.72%
- 25 Content ([3]; 3.0 h): 100.67%
- 25 Content ([3]; 3.5 h): 100.93%
- 25 Content ([3]; 4.0 h): 100.74%
- 25 Content ([3]; 5.0 h): 100.21%
- 25 Content ([3]; 6.0 h): 100.24%
- 25 Content ([3]; 7.0 h): 100.34%
- 25 Content ([3]; 8.0 h): 100.30%
- 25 Content ([3]; 9.0 h): 99.29%
- 25 Content ([3]; 10.0 h): 98.88%
- 25 Content ([3]; 11.0 h): 98.43%
- 25 Content ([3]; 12.0 h): 98.65% and 98.6%
- EC50 (HCV Con1-1b replicon): 810 ± 240 nM
- EC50 (HCV H77-1a replicon): 850 ± 210 nM
